Data: US6525078B1, “Compound for the treatment of atherosclerotic-thrombotic pathological conditions” (priority 2002, dated 2003)

Key:
[1] = tested on: platelet aggregation in platelet-rich plasma (PRP); assay: Platelet aggregation in human platelet-rich plasma (aggregometer, light transmittance); format: cell-based; conditions: for ability to counteract platelet aggregation by arachidonic acid: aggregation induced by arachidonic acid, human PRP
Description: Platelet aggregation experiments were performed on platelet-rich plasma (PRP) prepared from blood of healthy human subjects, who had not taken cyclooxygenase inhibitors (acetylsalicylic acid, non-steroidal anti-inflammatory agents) for at least two weeks. Blood was collected in test tubes containing a 3.2% sodium citrate solution ( 1/10 of blood volume) and immediately centrifuged at 150×g for 15 minutes. Samples of PRP were further centrifuged at 12,000×g in order to obtain platelet-poor plasma (PPP), used for calibration of light transmittance of the double-channel aggregometer, fixing the transmittance of PRP as 10% and that of PPP as 90%. Platelet aggregation in PRP of each subject was tested measuring the percent increase in transmittance under the addition of increasing amounts of sodium arachidonate, in concentrations in the range from 300 to 900 μM, or of collagen, in concentrations in the range from 0.5 to 2.5 μg/ml, or of U-46619, in concentrations in the range from 0.2 to 1.6 μM. (U-46619, i.e., 9,11-dideoxy-11α, 9α-epoxymethano-prostaglandin F2α is an active synthetic analogue of thromboxane A2 and it is chemically stable, at difference from the natural compound; it is therefore used as a substitute in pharmacological experiments). In this way the threshold concentration, i.e., the concentration inducing a submaximal irreversible aggregation was assessed in each subject with the three agents.
PRP samples of subjects not responding to the maximal concentrations were discarded.

thromboxane synthesis = assay: Thromboxane synthesis in clotting blood (serum TxB2 by radioimmunoassay); format: cell-based; conditions: human blood clotted 60 min at 37° C.
Description: Test compounds were added in a series of concentrations ranging from 10^−7 M to 10^−3 M to samples of blood from healthy human subjects, who had not taken cyclooxygenase inhibitors (acetylsalicylic acid, non-steroidal anti-inflammatory agents) for at least two weeks. The blood samples were allowed to clot for 60 min in a bath at 37° C., and then centrifuged at 2500×g for 10 min. The serum was separated and kept frozen at −20° C. for the determination of TxB2 by radio immunoassay. TxB2 is the stable metabolite into which thromboxane A2 is rapidly converted.

[2] = tested on: transcellular synthesis of prostacyclin; assay: Transcellular prostacyclin synthesis: human PRP layered on acetylsalicylic acid-pretreated cultured bovine endothelial cells (6-keto-prostaglandin F1α by radioimmunoassay); format: cell-based
Description: The effects on the transcellular synthesis of prostacyclin from endoperoxides generated in platelets were assessed by layering platelet rich plasma (PRP), obtained from healthy human subjects as described above, on cultured bovine endothelial cells (5×10^5 cells/well). The endothelial cells were pretreated with acetylsalicylic acid (10^−4 M) in order to inhibit the direct synthesis of endoperoxides, and washed twice with Dulbecco's phosphate buffered saline. Then to individual samples of endothelial cells there were added at 37° C. while shaking on an oscillating platform, 0.5 ml of PRP samples pretreated with the test compounds in various concentrations, ranging from […] to 10^−3 M. Collagen (0.5 μg/ml) was then added to each sample. After 2 minutes of contact at 37° C., PRP was removed and centrifuged at 12,000×g, and the supernatant was frozen and kept at −20° C. for the determination of 6-keto-prostaglandin F1α by radioimmunoassay.
6-Keto-prostaglandin F1α is a stable metabolite into which prostacyclin is rapidly converted.

rabbit aortae = assay: Vascular relaxation of contracted aortic rings in vitro; conditions: at a concentration of 10^−4 M; contraction induced with norepinephrine (10^−6 M)
Description: The ability to induce vascular relaxation by acting as a donor of nitric oxide was tested in vitro on rabbit aortae. Rings of aortae were suspended in a Krebs-Henseleit solution at 37° C., submitted to a 1 g tension and connected to a force transducer.

O=C(O)/C=C/c1ccc(Cn2ccnc2)cc1 [ozagrel, (E)-3-[4-(1H-imidazol-1-ylmethyl)-phenyl]-2-propenoic acid]
ability to counteract platelet aggregation by arachidonic acid [1]: shared
effect on thromboxane synthesis (thromboxane synthesis): at difference from acetylsalicylic acid and ozagrel

COc1ccc(C(=O)N[C@H]2CC[C@H](O[N+](=O)[O-])CC2)cc1C(=O)NCc1cccnc1 [4-Methoxy-N^1-(4-trans-nitrooxycyclohexyl)-N^3-(3-pyridinylmethyl)-1,3-benzenedicarboxamide]
level of prostacyclin metabolite relative to the amount produced in basal conditions by endothelial cells not submitted to cyclooxygenase inhibition ([2]; acetylsalicylic acid-treated endothelial cells, collagen 0.5 μg/ml): 8-16 times
production of the prostacyclin metabolite (6-keto-prostaglandin F1α), level reached ([2]; acetylsalicylic acid-treated endothelial cells, collagen 0.5 μg/ml, 2 minutes at 37° C.): 800-1600 μpg/ml
concentration from which production of the prostacyclin metabolite was markedly increased ([2]; collagen 0.5 μg/ml, 2 minutes at 37° C., 6-keto-prostaglandin F1α): ≥ 10^−6 M
relaxation of the aortic ring (rabbit aortae): complete relaxation

CC(=O)Oc1ccccc1C(=O)O [acetylsalicylic acid]
ability to counteract platelet aggregation by arachidonic acid [1]: shared
effect on thromboxane synthesis (thromboxane synthesis): at difference from acetylsalicylic acid and ozagrel

O=C(O)Cc1ccc(CCNS(=O)(=O)c2ccc(Cl)cc2)cc1 [daltroban, p-[2-(p-chlorobenzenesulfonamido)ethyl]phenylacetic]
stimulation of the synthesis of prostacyclin ([2]; PRP on acetylsalicylic acid-treated bovine endothelial cells): did not stimulate the synthesis of prostacyclin
ability to counteract the aggregation by U-46619 ([1]; aggregation induced by U-46619, human PRP): shared only by daltroban
ability to counteract platelet aggregation by arachidonic acid [1]: shared
